This note sets out measurements from patent publication US11739089B2, “Acetamido-phenyltetrazole derivatives and methods of using the same” (Athenex, Inc., priority 2020, dated 2023).

Read-outs that look alike come from different tables or passages of the source. Where only a bound is given, the exact number is not on record here.

Usually IC50 stands for the concentration needed to halve the response being measured. Usually EC50 stands for the concentration that produces a half-maximal response.

For one data set, the target named is CYP3A4 (Homo sapiens (Human), UniProt P08684). Description: CYP3A4 inhibitory activity: Luciferin-IPA (P450-Glo) assay with human liver microsome. As to the method:
Cytochrome P450 activity may be determined by a P450-Glo™ assay (Promega) with human liver microsomes wherein the compounds of the present disclosure are dosed at different concentrations in buffer and incubated. Dose-response curve and IC50 data may be obtained and fit to a nonlinear regression model using GraphPad Prism software (v6.0).
The standard final Compound concentrations were 37, 111, 333, 1000, and 3000 nM. 12.5 μL of the Compound dilutions were transferred to a white 96-well plate. 1450 μL (enough for a whole plate) of 4× assay buffer (400 mM potassium phosphate buffer (10 mL 1M potassium phosphate buffer: 8.02 mL 1M K2HPO4+1.98 mL 1M KH2PO4 (1.4 g K2HPO4+0.27 g KH2PO4 in 10 mL H2O), 32 μM Luciferin-IPA (Promega V9002)) 580 μl of 1 M K3PO4 buffer, 870 μL H2O, 14 μL of 3 mM Luciferin-IPA, and 18 μL of human liver microsome (Sigma M0317-1VL) was made. 12.5 μL of 4× assay buffer was added to each well. For the well of blank control, 12.5 μL of 4× assay buffer without liver microsome was added. The plate was incubated at room temperature for 15 minutes. 2.75 mL NADPH buffer was made as follows: 2.42 mL H2O, 275 μL solution A and 55 μL solution B (NADPH regeneration system, Promega V9510). 25 μL of the buffer was added to each well. The plates were incubated at 37° C. for 11 minutes. 50 μL of luciferin detection reagent (Promega V9002) was added and the plates were incubated at room temperature for 5 minutes. The plate was read with a luminometer.
The dose-response curve and IC50 were obtained by fitting data to nonlinear regression model using GraphPad Prism software (v6.0).
For orientation: Liver microsomes are vesicles of endoplasmic reticulum, rich in cytochrome P450 enzymes.

In another data set the target is P-glycoprotein (Homo sapiens (Human), UniProt P08183). Description: P-glycoprotein inhibitory activity: MTT cell growth assay in P-gp overexpressing MES-SA/DX5 cells with docetaxel or paclitaxel. It counts as cell-based. The following applies: 3 days, with 100 nM docetaxel or 200 nM paclitaxel, MTT readout. As to the method: P-glycoprotein inhibitory activity may be determined by an assay wherein P-glycoprotein overexpressed cell lines are treated with increasing concentrations of a compound of the present disclosure and therapeutic agent for three days, followed by an MTT assay.
Cell growth percentage may be calculated with the following equation: Cell growth percentage=(T−T0)/(C−T0)×100%, wherein T is OD of the test well exposure to Compound; C is OD of the control well without Compound treatment; and T0 is OD at time zero.
A P-glycoprotein overexpressing cell line derived from the human uterine sarcoma cell line MES-SA (i.e., MES-SA/DX5 cells (ATCC)) was seeded by stepwise exposures to increasing concentrations of doxorubicin, in a 96-well plate at 6,500 cells/100 μL media (McCoy's 5A+10% FBS) in each well. The cells were incubated overnight at 37° C. 5% CO2. Compounds were diluted in a separate 96-well plate to yield 11× of final concentration (final Compound concentrations were 0, 5, 20, 80, 320, and 1280 nM and the final docetaxel concentration was 100 nM or the final paclitaxel concentration was 200 nM). DMSO was used as a negative control and known P-glycoprotein inhibitor, encequidar methane sulfonic acid monohydrate (HM30181A), was used as a positive control. 10 μL of the 11× dilutions was added to the appropriate well, P-glycoprotein inhibition wells comprised Compound+docetaxel (or Compound+paclitaxel). The compound toxicity wells comprised 1280 nM Compound+10 μL of culture media. Treated the cells were incubated for 3 days at 37° C. 5% CO2.
To value (reflecting the starting number of cells upon Compound treatment) of 3 wells of cells was determined by performing the following steps 1-4 as described below.
1. 10 μL MTT (5 mg/mL in PBS) was added to each well and incubated for 1.5 hours at 37° C. 5% CO2.
2. Culture media was removed and 100 μL of DMSO was added to each well.
3. The plate was gently shook until all purple MTT formazan crystals were dissolved. OD540 was then measured using microplate reader.
4. Cell growth percentage was calculated with the following equation: Cell growth percentage=(T−T0)/(C−T0)×100%, wherein T is OD of the test well exposure to Compound; C is OD of the control well without Compound treatment; and T0 is OD at time zero.

Sequence of P-glycoprotein (P08183 whole entry): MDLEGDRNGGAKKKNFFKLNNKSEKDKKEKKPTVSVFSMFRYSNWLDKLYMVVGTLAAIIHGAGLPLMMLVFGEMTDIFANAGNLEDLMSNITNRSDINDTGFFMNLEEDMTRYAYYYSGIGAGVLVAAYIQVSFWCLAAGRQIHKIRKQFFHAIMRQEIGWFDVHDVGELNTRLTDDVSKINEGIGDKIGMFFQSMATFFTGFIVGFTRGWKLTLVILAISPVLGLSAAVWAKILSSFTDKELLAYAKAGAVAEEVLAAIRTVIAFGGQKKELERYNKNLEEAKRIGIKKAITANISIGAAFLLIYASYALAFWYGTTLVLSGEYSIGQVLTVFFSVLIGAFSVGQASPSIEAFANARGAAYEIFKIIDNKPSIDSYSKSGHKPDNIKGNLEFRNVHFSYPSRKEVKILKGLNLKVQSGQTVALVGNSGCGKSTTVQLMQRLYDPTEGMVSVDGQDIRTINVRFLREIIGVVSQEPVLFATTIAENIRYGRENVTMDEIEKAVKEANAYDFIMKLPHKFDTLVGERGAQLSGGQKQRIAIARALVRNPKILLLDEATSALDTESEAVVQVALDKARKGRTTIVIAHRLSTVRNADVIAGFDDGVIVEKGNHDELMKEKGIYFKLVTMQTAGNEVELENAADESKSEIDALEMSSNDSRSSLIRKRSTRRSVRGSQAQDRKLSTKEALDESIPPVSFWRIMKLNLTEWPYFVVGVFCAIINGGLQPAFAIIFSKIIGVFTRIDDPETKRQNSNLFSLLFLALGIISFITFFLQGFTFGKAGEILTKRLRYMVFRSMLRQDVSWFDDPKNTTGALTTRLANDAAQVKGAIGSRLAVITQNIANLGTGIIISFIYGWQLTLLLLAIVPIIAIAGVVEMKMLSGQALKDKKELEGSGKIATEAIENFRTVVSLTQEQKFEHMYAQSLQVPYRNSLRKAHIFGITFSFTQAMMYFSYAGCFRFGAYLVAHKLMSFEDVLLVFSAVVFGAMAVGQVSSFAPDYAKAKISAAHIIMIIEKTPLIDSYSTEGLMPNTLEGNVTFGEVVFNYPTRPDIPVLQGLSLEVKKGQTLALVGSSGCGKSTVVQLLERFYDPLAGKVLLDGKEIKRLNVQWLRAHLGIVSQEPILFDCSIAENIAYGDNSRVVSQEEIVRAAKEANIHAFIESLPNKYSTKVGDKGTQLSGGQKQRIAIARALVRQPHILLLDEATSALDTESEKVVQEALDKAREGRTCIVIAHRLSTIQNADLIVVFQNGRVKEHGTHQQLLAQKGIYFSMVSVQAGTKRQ
Sequence of CYP3A4 (P08684 whole entry): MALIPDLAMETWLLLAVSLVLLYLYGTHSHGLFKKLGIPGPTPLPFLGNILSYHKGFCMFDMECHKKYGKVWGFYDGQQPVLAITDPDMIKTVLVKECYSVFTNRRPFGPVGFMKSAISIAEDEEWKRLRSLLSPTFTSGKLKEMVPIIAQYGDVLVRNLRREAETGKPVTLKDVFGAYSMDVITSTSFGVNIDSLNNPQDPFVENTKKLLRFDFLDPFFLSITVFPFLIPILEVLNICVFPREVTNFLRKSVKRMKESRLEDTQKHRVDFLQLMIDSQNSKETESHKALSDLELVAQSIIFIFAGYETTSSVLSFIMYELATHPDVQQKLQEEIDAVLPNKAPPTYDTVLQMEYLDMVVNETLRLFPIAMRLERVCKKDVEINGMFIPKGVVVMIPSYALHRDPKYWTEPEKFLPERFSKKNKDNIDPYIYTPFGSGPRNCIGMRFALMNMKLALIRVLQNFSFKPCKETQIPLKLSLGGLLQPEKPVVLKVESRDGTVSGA

In the case of `COc1cc2c(cc1OC)CN(CCc1ccc(-n3nnc(-c4cc(OC)c(OC)cc4NC(=O)c4ccc(-c5cccnc5)cc4)n3)cc1)CC2` [Compound 22, N-(2-(2-(4-(2-(6,7-Dimethoxy-3,4-dihydroisoquinolin-2(1H)-yl)ethyl)phenyl)-2H-tetrazol-5-yl)-4,5-dimethoxyphenyl)-4-(pyridin-3-yl)benzamide], the 50% inhibitory concentration (IC50) against CYP3A4 (human, microsomes, 11 min) was over 1000 nM. For the same compound, the EC50 at P-glycoprotein lay within 100 to 250 nM.
As to `COc1cc2c(cc1OC)CN(CCc1ccc(-n3nnc(-c4cc(Oc5ccncc5)ccc4NC(=O)c4cc(=O)c5ccccc5o4)n3)cc1)CC2` [Compound 25, N-(2-(2-(4-(2-(6,7-Dimethoxy-3,4-dihydroisoquinolin-2(1H)-yl)ethyl)phenyl)-2H-tetrazol-5-yl)-4-(pyridin-4-yloxy)phenyl)-4-oxo-4H-chromene-2-carboxamide], the half-inhibitory concentration (IC50) on CYP3A4 (human, microsomes, 11 min) was over 1000 nM. On P-glycoprotein, the EC50 is 500 to 1000 nM.
On the same counts, the results for `COc1cc(NC(=O)c2cc(=O)c3ccccc3o2)c(-c2nnn(-c3ccc(CCN4CCc5ccncc5C4)cc3)n2)cc1OC` [Compound 6, N-(2-(2-(4-(2-(3,4-Dihydro-2,7-naphthyridin-2(1H)-yl)ethyl)phenyl)-2H-tetrazol-5-yl)-4,5-dimethoxyphenyl)-4-oxo-4H-chromene-2-carboxamide] are over 1000 nM and 100 to 250 nM.
For the compound `COc1cc(NC(=O)c2cc(=O)c3ccc(C)cc3o2)c(-c2nnn(-c3ccc(CCN(Cc4cccc(-n5ccnc5)c4)Cc4ccc5c(cnn5C)c4)cc3)n2)cc1OC` [Compound 5, N-(2-(2-(4-(2-((3-(1H-Imidazol-1-yl)benzyl)((1-methyl-1H-indazol-5-yl)methyl)amino)ethyl)phenyl)-2H-tetrazol-5-yl)-4,5-dimethoxyphenyl)-7-methyl-4-oxo-4H-chromene-2-carboxamide], at CYP3A4 (human, microsomes, 11 min), the IC50 was over 1000 nM. The same compound displayed an EC50 at P-glycoprotein of over 1000 nM.
`COc1cc(NC(=O)c2cnc3ccccc3c2)c(-c2nnn(-c3ccc(CCN(Cc4cccc(-n5ccnc5)c4)Cc4ccc5c(cnn5C)c4)cc3)n2)cc1OC` [Compound 4, N-(2-(2-(4-(2-((3-(1H-Imidazol-1-yl)benzyl)((1-methyl-1H-indazol-5-yl)methyl)amino)ethyl)phenyl)-2H-tetrazol-5-yl)-4,5-dimethoxyphenyl)quinoline-3-carboxamide]: the IC50 against CYP3A4 lay within 500 to 1000 nM. Besides, the EC50 at P-glycoprotein is 500 to 1000 nM.
At CYP3A4 (human, microsomes, 11 min), `COc1cc2c(cc1OC)CN(CCc1ccc(-n3nnc(-c4cc(OC)c(OC)cc4NC(=O)c4ccc(-c5ccncc5)cc4)n3)cc1)CC2` [Compound 21, N-(2-(2-(4-(2-(6,7-Dimethoxy-3,4-dihydroisoquinolin-2(1H)-yl)ethyl)phenyl)-2H-tetrazol-5-yl)-4,5-dimethoxyphenyl)-4-(pyridin-4-yl)benzamide] yielded an IC50 of over 1000 nM. For the same compound, the EC50 on P-glycoprotein was under 100 nM.
Compound `COc1cc(NC(=O)c2cc(=O)c3ccccc3o2)c(-c2nnn(-c3ccc(CCN(Cc4cccc(-n5ccnc5)c4)Cc4ccc5c(cnn5C)c4)cc3)n2)cc1OC` [Compound 3, N-(2-(2-(4-(2-((3-(1H-Imidazol-1-yl)benzyl)((1-methyl-1H-indazol-5-yl)methyl)amino)ethyl)phenyl)-2H-tetrazol-5-yl)-4,5-dimethoxyphenyl)-4-oxo-4H-chromene-2-carboxamide] showed a half-maximal inhibitory concentration (IC50) on CYP3A4 of 500 to 1000 nM. Moreover, on P-glycoprotein, the EC50 was over 1000 nM.
As to `COc1cc2c(cc1OC)CN(CCc1ccc(-n3nnc(-c4cc(OCc5cccnc5)c(OC)cc4NC(=O)c4cc(=O)c5ccccc5o4)n3)cc1)CC2` [Compound 30, N-(2-(2-(4-(2-(6,7-Dimethoxy-3,4-dihydroisoquinolin-2(1H)-yl)ethyl)phenyl)-2H-tetrazol-5-yl)-5-methoxy-4-(pyridin-3-ylmethoxy)phenyl)-4-oxo-4H-chromene-2-carboxamide], the half-maximal inhibitory concentration (IC50) against CYP3A4 (human, microsomes, 11 min) is over 1000 nM. Further, the EC50 at P-glycoprotein was under 100 nM.
Consider `COc1cc2c(cc1OC)CN(CCc1ccc(-n3nnc(-c4cc(OCc5cccnc5)ccc4NC(=O)c4cc(=O)c5ccccc5o4)n3)cc1)CC2` [Compound 27, N-(2-(2-(4-(2-(6,7-Dimethoxy-3,4-dihydroisoquinolin-2(1H)-yl)ethyl)phenyl)-2H-tetrazol-5-yl)-4-(pyridin-3-ylmethoxy)phenyl)-4-oxo-4H-chromene-2-carboxamide], for which the half-inhibitory concentration (IC50) against CYP3A4 (human, microsomes, 11 min) was over 1000 nM. Besides, the EC50 at P-glycoprotein is under 100 nM.
`COc1cc2c(cc1OC)CN(CCc1ccc(-n3nnc(-c4cc(Oc5cccnc5)ccc4NC(=O)c4cc(=O)c5ccccc5o4)n3)cc1)CC2` [Compound 24, N-(2-(2-(4-(2-(6,7-Dimethoxy-3,4-dihydroisoquinolin-2(1H)-yl)ethyl)phenyl)-2H-tetrazol-5-yl)-4-(pyridin-3-yloxy)phenyl)-4-oxo-4H-chromene-2-carboxamide] registered a half-maximal inhibitory concentration (IC50) against CYP3A4 (human, microsomes, 11 min) of over 1000 nM. In addition, the EC50 on P-glycoprotein was under 100 nM.
Take `COc1cc2c(cc1OC)CN(CCc1ccc(-n3nnc(-c4cc(OC)c(OC)cc4NC(=O)c4cc(=O)c5cc(-c6ccncc6)ccc5o4)n3)cc1)CC2` [Compound 19, N-(2-(2-(4-(2-(6,7-Dimethoxy-3,4-dihydroisoquinolin-2(1H)-yl)ethyl)phenyl)-2H-tetrazol-5-yl)-4,5-dimethoxyphenyl)-4-oxo-6-(pyridin-4-yl)-4H-chromene-2-carboxamide]: at CYP3A4 (human, microsomes, 11 min), the IC50 was over 1000 nM. The EC50 at P-glycoprotein is over 1000 nM.
`COc1cc2c(cc1OC)CN(CCc1ccc(-n3nnc(-c4cc(OC)c(OC)cc4NC(=O)c4cc(=O)c5ccccc5o4)n3)cc1)CC2` [Encequidar methanesulfonate monohydrate, reference compound] gave a half-maximal inhibitory concentration (IC50) on CYP3A4 (human, microsomes, 11 min) of over 1000 nM. Further, the concentration giving a half-maximal response (EC50) at P-glycoprotein is under 100 nM.
With `COc1cc(NC(=O)c2cc(=O)c3ccccc3o2)c(-c2nnn(-c3ccc(CCN4CCc5ccc(-n6ccnc6)cc5C4)cc3)n2)cc1OC` [Compound 10, N-(2-(2-(4-(2-(7-(1H-Imidazol-1-yl)-3,4-dihydroisoquinolin-2(1H)-yl)ethyl)phenyl)-2H-tetrazol-5-yl)-4,5-dimethoxyphenyl)-4-oxo-4H-chromene-2-carboxamide], the concentration for half-maximal inhibition (IC50) against CYP3A4 fell in the range of 250 to 500 nM. Besides, the EC50 on P-glycoprotein was over 1000 nM.
